Measurements as given in US9943529B2, “Methods for reducing cellular proliferation and treating certain diseases” (BRIGHAM YOUNG UNIVERSITY, priority 2013, dated 2018).

Tests used:
[1] = system: MCF7; test: cells; settings: Homo sapiens, MCF7, 48 h
[2] = system: A549/ATCC; test: cells; settings: Homo sapiens, A549, 48 h
[3] = system: DU-145; test: cells; settings: Homo sapiens, DU-145, 48 h
[4] = system: NCI-ADR-RES; test: cells; settings: Homo sapiens, 48 h
[5] = system: HOP-62; settings: 48 hours, five 10-fold dilutions starting from 100 μM
[6] = system: SN12C; settings: 48 hours, five 10-fold dilutions starting from 100 μM
[7] = system: NCI-H322M; test: cells; settings: Homo sapiens, 48 h
[8] = system: RXF 393; test: cells; settings: Homo sapiens, RXF 393, 48 h
[9] = system: OVCAR-4; settings: 48 hours, five 10-fold dilutions starting from 100 μM
[10] = system: OVCAR-5; settings: 48 hours, five 10-fold dilutions starting from 100 μM
[11] = system: SF-295; test: cells; settings: Homo sapiens, SF-295, 48 h
[12] = system: SF-268; test: cells; settings: Homo sapiens, SF-268, 48 h
[13] = system: TK-10; settings: 48 hours, five 10-fold dilutions starting from 100 μM
[14] = system: HOP-62; test: cells; settings: Homo sapiens, HOP-62, 48 h
[15] = system: HCT-116; test: cells; settings: Homo sapiens, HCT-116, 48 h
[16] = system: T-47D; settings: 48 hours, five 10-fold dilutions starting from 100 μM
[17] = system: MDA-MB-435; settings: 48 hours, five 10-fold dilutions starting from 100 μM
[18] = system: M14; test: cells; settings: Homo sapiens, M14, 48 h
[19] = system: NCI-H322M; settings: 48 hours, five 10-fold dilutions starting from 100 μM
[20] = system: HCC-2998; test: cells; settings: Homo sapiens, HCC 2998, 48 h
[21] = system: K-562; test: NCI screen antiproliferative activity, sulforhodamine B, Leukemia panel; type: cell-based, human; settings: five 10-fold dilutions starting from 100 μM
[22] = system: LOX IMVI; test: NCI screen antiproliferative activity, sulforhodamine B, Melanoma panel; type: cell-based, human; settings: 48 hours, five 10-fold dilutions starting from 100 μM
[23] = system: PC-3; settings: 48 hours, five 10-fold dilutions starting from 100 μM
[24] = system: NCI-H522; settings: 48 hours, five 10-fold dilutions starting from 100 μM
[25] = system: CAKI-1; test: cells; settings: Homo sapiens, CAKI-1, 48 h
[26] = system: SNB-19; settings: 48 hours, five 10-fold dilutions starting from 100 μM
[27] = system: IGROV1; test: cells; settings: Homo sapiens, IGROV-1, 48 h
[28] = system: RXF 393; settings: 48 hours, five 10-fold dilutions starting from 100 μM
[29] = system: SK-MEL-28; settings: 48 hours, five 10-fold dilutions starting from 100 μM
[30] = system: HOP-92; test: cells; settings: Homo sapiens, HOP-92, 48 h
[31] = system: EKVX; settings: 48 hours, five 10-fold dilutions starting from 100 μM
[32] = system: TK-10; test: cells; settings: Homo sapiens, TK-10, 48 h
[33] = system: HT29; test: cells; settings: Homo sapiens, HT-29, 48 h
[34] = system: SK-OV-3; test: cells; settings: Homo sapiens, SK-OV-3, 48 h
[35] = system: UACC-62; test: cells; settings: Homo sapiens, UACC-62, 48 h
[36] = system: MCF7; settings: 48 hours, five 10-fold dilutions starting from 100 μM
[37] = system: KM12; test: NCI screen antiproliferative activity, sulforhodamine B, Colon Cancer panel; type: cell-based, human; settings: 48 hours, five 10-fold dilutions starting from 100 μM
[38] = system: MALME-3M; test: NCI screen antiproliferative activity, sulforhodamine B, Melanoma panel; type: cell-based, human; settings: 48 hours, five 10-fold dilutions starting from 100 μM
[39] = system: UACC-257; settings: 48 hours, five 10-fold dilutions starting from 100 μM
[40] = system: SK-OV-3; settings: 48 hours, five 10-fold dilutions starting from 100 μM
[41] = system: SN12C; test: cells; settings: Homo sapiens, 48 h
[42] = system: MDA-MB-435; test: cells; settings: Homo sapiens, MDA-MB-435, 48 h
[43] = system: NCI-H226; settings: 48 hours, five 10-fold dilutions starting from 100 μM

Question: What does the source list for CCCCCCCCNCCC[C@@H](C)[C@H]1CC[C@H]2[C@@H]3[C@H](OCCCN)C[C@@H]4C[C@H](OCCCN)CC[C@]4(C)[C@H]3C[C@H](OCCCN)[C@]12C [CSA-13]?
Answer: GI50 [1]: 1.63 µM; CC50 ([1]; read-out: LC50): 5.85 µM; GI50 [2]: 2.01 µM; CC50 ([2]; read-out: LC50): 45.9 µM; GI50 [3]: 1.14 µM; CC50 ([3]; read-out: LC50): 4.85 µM; GI50 [4]: 1.83 µM; CC50 ([4]; read-out: LC50): 36.5 µM; TGI [5]: 2.96 µM; TGI [6]: 3.55 µM; GI50 [7]: 1.36 µM; CC50 ([7]; read-out: LC50): > 100 µM; GI50 [8]: 1.54 µM; CC50 ([8]; read-out: LC50): > 100 µM; TGI [9]: 25.2 µM; TGI [10]: 9.44 µM; GI50 [11]: 0.496 µM; CC50 ([11]; read-out: LC50): 24 µM; GI50 [12]: 1.5 µM; CC50 ([12]; read-out: LC50): 9.14 µM; TGI [13]: 4.70 µM; GI50 [14]: 0.806 µM; CC50 ([14]; read-out: LC50): 9.74 µM; GI50 [15]: 0.87 µM; CC50 ([15]; read-out: LC50): 7.25 µM; TGI [16]: 7.13 µM; TGI [17]: 1.46 µM; GI50 [18]: 1.18 µM; CC50 ([18]; read-out: LC50): 12.6 µM; TGI [19]: 9.31 µM; GI50 [20]: 1.51 µM; CC50 ([20]; read-out: LC50): 13.3 µM; TGI ([21]; 48 hours): 2.47 µM; GI50 ([21]; Homo sapiens, K562, 48 hours): 1.04 µM; TGI [22]: 1.73 µM; GI50 ([22]; Homo sapiens): 0.378 µM; TGI [23]: >100 µM; TGI [24]: 10.5 µM; GI50 [25]: 2.05 µM; CC50 ([25]; read-out: LC50): 68 µM; TGI [26]: 5.05 µM; GI50 [27]: 1.44 µM; CC50 ([27]; read-out: LC50): 8.67 µM; TGI [28]: 15.6 µM; TGI [29]: 1.27 µM; GI50 [30]: 0.408 µM; CC50 ([30]; read-out: LC50): > 100 µM; TGI [31]: 3.38 µM; GI50 [32]: 0.974 µM; CC50 ([32]; read-out: LC50): > 100 µM; GI50 [33]: 1.11 µM; CC50 ([33]; read-out: LC50): 34 µM; GI50 [34]: 3.45 µM; CC50 ([34]; read-out: LC50): 93.1 µM; GI50 [35]: 0.482 µM; CC50 ([35]; read-out: LC50): 9.43 µM; TGI [36]: 3.09 µM; TGI [37]: 2.76 µM; GI50 ([37]; Homo sapiens): 0.586 µM; TGI [38]: 3.88 µM; GI50 ([38]; Homo sapiens): 1.76 µM; TGI [39]: 9.00 µM; TGI [40]: 16.3 µM; GI50 [41]: 0.571 µM; CC50 ([41]; read-out: LC50): 27 µM; GI50 [42]: 0.318 µM; CC50 ([42]; read-out: LC50): 5.68 µM; TGI [43]: 12.8 µM
